This is an account of results in patent USRE32992E, “Peptide process for preparation thereof and use thereof” (priority 1978, dated 1989).

For the assay, the system named is reticuloendotherial system. Kind of assay: Blood stream clearance of carbon. It is filed as in vivo, Mice (DDY male 5-6 W). How it is done:
1. Carbon suspension. Rotoring drawing ink (170 mg carbon/ml.) was diluted to 1/5 of the original concentration in saline containing 1% gelatin.
2. 0.1% aqueous sodium carbonate solution.
Mice (DDY male 5-6 W) were injected via the tail vein with a dose of 0.01 ml/g body weight of carbon. Blood samples were taken by means of a pointed capillary pippet calibrated to hold a 50 μl and previously washed in heparin. This was plunged into the retrooribital venous sinus at the nasal angle of the eye. The samples were removed at 3 and to 6 min.
The blood was immediately discharged into 3.0 ml. of the sodium carbonate solution. This hemolyszed the blood and allowed the quantitation of carbon. The samples were then read in a spectrophotometer at 660 nm, the log concentration being obtained from a previously determined standard curve. The clearance value K may be determined by plotting log carbon concentration against time according to the following relationship; [formula] in which T1 and T2 represent the time in min when the sample were withdrawn and C1 and C2 represent the concentrations of carbon in the blood at the time T1 and T2, respectively.
The aqueous solution of the test compound as given was administered subcutaneously to mice. Twenty four hours later, blood stream clearance of carbon was measured. K value obtained with treated mice was compared with that of control mice.

As for `c1ccc([C@H]2CN3CCSC3=N2)cc1` [Levamisol], the Ktreated/Kcontrol entry (dose 10 mg/mouse) is recorded as “death”.
Turning to Tuftsin, the Ktreated/Kcontrol (dose 125 mg/mouse) was 1.0 and the Ktreated/Kcontrol (dose 400 mg/mouse) is given as 1.4.
